The text below walks through data of patent US12616200B2, “Herbicidal combinations comprising diflufenican and mesotrione” (priority 2020, dated 2026).

Holding throughout (format): in vivo, Amaranthus palmeri
For experiment [1], the system named is AMAPA WR-2015-008 (resistant against glyphosate and metribuzin (PSII-inhibitor), PPO-, HPPD- and ALS-inhibitor herbicides). The experiment can be described thus: Greenhouse pre-emergence herbicidal activity, AMAPA WR-2015-008. To be noted: mean of 6. An excerpt:
(§1) Test conditions in the greenhouse trial, herbicidal activity against weed plants pre-emergence.
(§2) Seeds of weed plants and crop plants are sown in 3.5 inches (8.89 cm) pots containing a 50:50 mix of Redi-earth (Sun Gro, Bellevue, Washington) and soil at 0.5 to 0.75 inches (1.27 to 1.905 cm) deep. The compounds of the disclosure, formulated in the form of wettable powders (WP) or emulsifiable concentrates (EC), are then applied to the dry soil surface, in the form of an aqueous suspension or emulsion, using a laboratory track sprayer calibrated to deliver 15 gallons per acre (140.31 L/ha). Following the treatment, the pots are placed in a greenhouse and overhead irrigated with 0.25 inches (0.635 cm) for activation and maintained under good growth conditions for the test plants. Visual scoring of the damage to the trial plants takes place after a trial time of 3 weeks in comparison to untreated controls (herbicidal activity in percent (%): 100% activity=plants have died; 0% activity=as control plants). The results are set out in the tables which follow.
AMAPA (WR-2015-008) Amaranthus palmeri (resistant against glyphosate and metribuzin (PSII-inhibitor), PPO-, HPPD- and ALS-inhibitor herbicides).
(§3) Herbicidal activity against different weeds (undesired plants) was calculated as follows: E^C=A+B−A×B/100; E^C=(A+B+C)−(A×B+A×C+B×C)/100+(A×B×C)/10000; • wherein: • A, B, C=respective value in percent of active ingredient A at a dose rate of a g/ha, ingredient B at a dose rate of b g/ha and ingredient C at a dose rate of c g/ha; • E^C=Expected value according to Colby (S. R. Colby; Weeds 15 (1967), 20-22) in % at a dose rate of a+b (+c), each in g/ha; • Δ=Difference (%) between measured value E and expected value E^C (%) (measured value minus expected value). Evaluation: • measured value E is greater than E^C: →synergism (+Δ); • measured value E is equal to E^C: →additive effect; • measured value E is smaller than E^C: →antagonism (−Δ);
(§4) All values in Tables 1 to 15 are mean values of 6 repetitions.

The subject of experiment [2] is AMAPA WR-2013-043 (resistant against HPPD-inhibitor herbicides). Briefly: Greenhouse pre-emergence herbicidal activity, AMAPA WR-2013-043. To be noted: 3 weeks, mean of 6.
Description: as §1, §2
AMAPA (WR-2013-043) Amaranthus palmeri (resistant against HPPD-inhibitor herbicides) (Kansas).
as §3, §4

Experiment [3] relates to AMAPA WR-2015-002 (resistant against glyphosate, PPO-, HPPD- and ALS-inhibitor herbicides). The experiment can be described thus: Greenhouse pre-emergence herbicidal activity, AMAPA WR-2015-002. To be noted: 3 weeks, mean of 6.
Description: as §1, §2
AMAPA (WR-2015-002) Amaranthus palmeri (resistant against glyphosate, PPO-, HPPD- and ALS-inhibitor herbicides) (Tennessee).
as §3, §4

Molecules are shown by their SMILES.

As to `O=C(Nc1ccc(F)cc1F)c1cccnc1Oc1cccc(C(F)(F)F)c1` [DFF, 2′,4′-difluoro-2-[3-(trifluoromethyl)phenoxy]pyridine-3-carboxanilide], the “Activity [%] against AMAPA WR-2015-008” value turned out to be 40.8% in experiment [1] (rate 37 g/ha, visual scoring after 3 weeks) and 51.7% in experiment [1] (rate 75 g/ha, 3 weeks). The figures for the “Activity [%] against AMAPA WR-2013-043” value in experiment [2] (rate 75 g/ha) and in experiment [2] (rate 150 g/ha) were 47.5% and 63.3%, respectively. Also, the “Activity [%] against AMAPA WR-2015-002” value in experiment [3] (rate 75 g/ha) was 45.8%; in experiment [3] (rate 150 g/ha), 71.7%.
For `CSc1nnc(C(C)(C)C)c(=O)n1N` [MRB, 4-amino-6-(1,1-dimethylethyl)-3-(methylthio)-1,2,4-triazin-5(4H)-one], the “Activity [%] against AMAPA WR-2015-008” value is 39.2% in experiment [1] (rate 75 g/ha, 3 weeks) and 45% in experiment [1] (rate 150 g/ha, 3 weeks).
On to `CS(=O)(=O)c1ccc(C(=O)C2C(=O)CCCC2=O)c([N+](=O)[O-])c1` [MST, 2-[4-(methylsulfonyl)-2-nitrobenzoyl]cyclohexane-1,3-dione], for which the “Activity [%] against AMAPA WR-2015-008” value in experiment [1] (rate 52 g/ha, 3 weeks) turned out to be 57.7%; in experiment [1] (rate 105 g/ha, 3 weeks) it was 85%. The “Activity [%] against AMAPA WR-2013-043” value was 55.0% in experiment [2] (rate 52 g/ha) and 70.5% in experiment [2] (rate 105 g/ha). In addition, the “Activity [%] against AMAPA WR-2015-002” value in experiment [3] (rate 105 g/ha) amounted to 82.5%.
